From US20210395680A1, “COMPOSITION AND KIT FOR DIFFERENTIATION OF STEM CELLS INTO NEURAL PROGENITOR CELLS, AND METHOD USING SAME” (CHA UNIVERSITY INDUSTRY-ACADEMIC COOPERATION FOUNDATION, priority 2018, published 2021)

What was measured:
[1] = system: H9 human embryonic stem cells (hESCs); test: Differentiation of H9 hESCs into neural progenitor cells via embryoid bodies; SOX1/P75 flow cytometry; assay type: cell-based
Description: Colonies obtained by culturing H9 human embryonic stem cells (hESCs) (WiCell Research Institute, Inc. Madison, Wis., U.S.A.) in a culture medium were dissociated into single cells using accutase (Life Technologies).
The cells dissociated into single cells were seeded in a culture plate coated with a protein such as vitronectin (VTN) (vitronectin XF, STEMCELL Technologies), laminine (rhLaminin-521, Thermo Fisher Scientific Inc., Waltham, Mass., USA), fibronectin (Thermo Fisher Scientific Inc.), or Matrigel™ (StemCell Technologies, Inc.). An embryonic stem cell (ESC) culture medium was added to the seeded cells to perform undifferentiation culture. As the ESC culture medium, Essential 8 (E8) medium (StemCell Technologies Inc.), TeSR2 medium (StemCell Technologies Inc), StemMACS (Miltenyi Biotec, Bergisch Gladbach, Germany), etc. was used.
(§1) The obtained colonies were finely chopped and suspension-cultured under conditions of 37° C. and 5% CO2 in a defined medium 1 containing 5 […] of a PKC inhibitor and 0.5 μM of a BMP inhibitor for about 4 days to prepare embryoid bodies (EBs). The defined medium 1 included DMEM/F12 (Life Technologies), 10 μg/ml of insulin (Sigma-Aldrich), 9 μg/ml of transferrin (Sigma-Aldrich), and 14 ng/ml of sodium selenite (Sigma-Aldrich). 3-(1-(3-Imidazol-1-yl propyl)-1H-indol-3-yl)-4-anilino-1H-pyrrole-2,5-dione) (PKC-beta inhibitor) (Millipore) was used as the PKC inhibitor. DMH1 (dorsomorphin homolog 1) (Tocris Bioscience, USA) which is a compound inhibiting BMP 1 type receptor was used as the BMP inhibitor. As a negative control, dimethyl sulfoxide (DMSO) (Sigma-Aldrich) was used instead of the drug.
(§2) EBs, which are round cell masses produced by suspension culture (defined medium 1) for about 4 days, were finely chopped, and then adhered to the bottom of the culture plate, followed by adherent culture for about 5 days (DMEM-F12, 1×N2 supplement, 25 μg/ml of insulin, 20 ng/ml of bFGF, and a matrigel-coated culture plate were used). Microscopic images of EBs obtained by suspension culture for about 4 days, and cells forming rossettes obtained by adherent culture for about 5 days are shown in FIG. 1B (left: embryoid bodies, right: cells forming rosettes).
2% (v/v) paraformaldehyde (Sigma-Aldrich) was added to cells cultured for a total of 9 days (suspension culture for 4 days+adherent culture for 5 days), and allowed to react at room temperature for about 10 minutes to fix the cells. 2% (v/v) normal serum/1×PBS (Vector Laboratories, Inc., Burlingame, Calif.) containing 0.1% (v/v) TRITON™ X-100 (Sigma-Aldrich) was added to the cells, and allowed to react at room temperature for 30 minutes to block the fixation. To analyze a proportion of cells expressing SOX1 which is a neural progenitor cell (NPC) marker or P75 protein which is a neural crest stem cell (NCSC) marker, immunostaining was performed using phycoerythrin (PE)-labeled anti-P75 monoclonal antibody (1:50 dilution) (Miltenyi Biotec), and phycoerythrin (PE)-labeled anti-Sox1 monoclonal antibody (1:100 dilution) (BD Biosciences). The immunostained cells were subjected to flow cytometry using a BD FACSCalibur flow cytometer (BD Biosciences, Sparks, Md., USA).
H9-hESCs were cultured by the method of differentiating via embryoid bodies as in Example 1.1(1). However, a defined medium 2 described below was used instead of the defined medium 1 used in Example 1.1(1).
The defined medium 2 was prepared by mixing knockout DMEM (Invitrogen), 20% (v/v) knockout serum replacement (KSR, Invitrogen), 2 mM L-glutamine (invitrogen), 1% (w/v) penicillin/streptomycin (Invitrogen), and 0.1 mM β-mercaptoethanol (Invitrogen).
H9-hESCs were cultured by the method of differentiating via embryoid bodies as in Example 1(1). However, a defined medium 3 was used instead of the defined medium 1 used in Example 1(1). The defined medium 3 was prepared by mixing DMEM/F12 (Invitrogen) and N2 supplement (Invitrogen). […]

CHA15-hESC = test: Differentiation of CHA15-hESC into neural progenitor cells; SOX1/P75 flow cytometry; assay type: cell-based, human; conditions: defined medium 1 including PKC inhibitor and BMP inhibitor; total of 9 days
Description: as §1
as §2, with “rosettes). […]” for “rosettes).”

CHA6-hESC = test: Differentiation of CHA6-hESC into neural progenitor cells; SOX1/P75 flow cytometry; assay type: cell-based, human; conditions: defined medium 1 including PKC inhibitor and BMP inhibitor; total of 9 days
Description: as §1
as §2, with “rosettes). […]” for “rosettes).”

[2] = system: induced pluripotent stem cell line (iPS cell #3); test: Differentiation of induced pluripotent stem cell line (iPS cell #3) into neural progenitor cells; SOX1/P75 flow cytometry; assay type: cell-based, human; conditions: defined medium 1 including PKC inhibitor and BMP inhibitor; total of 9 days
Description: as §1
as §2, with “rosettes). […]” for “rosettes).”

[3] = system: H9 human embryonic stem cells (hESCs); test: Differentiation of H9 hESCs into neural progenitor cells via embryoid bodies; SOX1/P75 flow cytometry; assay type: cell-based; remark: listed apart in the source
[4] = defined medium 2 including PKC inhibitor and BMP inhibitor
[5] = defined medium 3 including PKC inhibitor and BMP inhibitor

Row | SMILES | cells expressing SOX1 (NPC marker) ([1]; defined medium 1, 5 μg/ml PKC inhibitor + 0.5 μM DMH1, suspension culture 4 days + adherent culture 5 days) | number of cells expressing P75 (neural crest stem cell marker) ([1]; defined medium 1, 5 μg/ml PKC inhibitor + 0.5 μM DMH1, total of 9 days culture) | differentiation into NPC ([1]; defined medium 1 including PKC inhibitor and DMH1) | differentiation into NPCs [1, 4] | number of cells expressing P75 (neural crest stem cell marker) [1, 4] | cells expressing SOX1 (NPC marker) ([1]; defined medium 2 including PKC inhibitor and BMP inhibitor, 4 days suspension + 5 days adherent) | differentiation into NPCs [1, 5] | number of cells expressing P75 (neural crest stem cell marker) [1, 5] | cells expressing SOX1 (NPC marker) ([1]; defined medium 3 including PKC inhibitor and BMP inhibitor, 4 days suspension + 5 days adherent) | differentiation into NPCs (CHA15-hESC) | differentiation into NPCs (CHA6-hESC) | differentiation into NPCs [2] | differentiation into SOX1-expressing NPCs ([3]; defined medium 1, 5 μM PKC inhibitor + 0.25 μM to 5 μM DMH1) [%] | differentiation into P75-expressing neural crest stem cells ([3]; defined medium 2, 5 μM PKC inhibitor + 0 μM to 0.5 μM DMH1) [%] | differentiation into SOX1-expressing NPCs ([3]; defined medium 2, 5 μM PKC inhibitor + 5 μM DMH1) [%] | differentiation into P75-expressing neural crest stem cells ([3]; defined medium 1, only 5 μM PKC inhibitor without DMH1) [%]
1 | CC(C)Oc1ccc(-c2cnc3c(-c4ccnc5ccccc45)cnn3c2)cc1 [DMH1, 4-[6-[4-(1-methylethoxy)phenyl]pyrazolo[1,5-a]pyrimidin-3-yl]-quinoline] | most of the cultured cells expressed SOX1 | small | differentiation into NPC is induced | differentiation into NPCs is induced | relatively very small | most of the cultured cells expressed SOX1 | differentiation into NPCs is induced | relatively very small | most of the cultured cells expressed SOX1 | differentiation into NPCs is induced | differentiation into NPCs is induced | differentiation into NPCs is induced | ≥ 96 | ≥ 84 | ≥ 96 | –
2 | O=C1NC(=O)C(c2cn(CCCn3ccnc3)c3ccccc23)=C1Nc1ccccc1 [PKC inhibitor] | – | – | – | – | – | – | – | – | – | – | – | – | – | – | – | ≥ 87
